Holding throughout (format): cell-based
The test system of one data set is MRSA. Put plainly: MIC against MRSA (as defined by CLSI). To be noted: Staphylococcus aureus, FIG. 25. The method, then:
To determine the MIC of the polyamine chains alone and the synthesized compounds against MRSA and P. aeruginosa ATCC 27853, a modified protocol from the Clinical and Laboratory Standards Institute (CLSI) guideline M26-A was used. […] All data was collected using cation adjusted MHB for standardization.
As mentioned, MRSA and P. aeruginosa ATCC 27853 were grown on Columbia blood agar plates prior to experimentation. From the blood agar plates, a 0.5 McFarland standard was made of each isolate. This equated to approximately 5×10^7 cells/mL for the MRSA isolate and approximately 3×10^7 cells/mL for the P. aeruginosa ATCC 27853 isolate. Of the 0.5 McFarland stock solution, 50 μL were added to MHB. […] All tests were performed such that a final volume of 5 mL of MHB were obtained. This provided a final bacterial concentration of approximately 5×10^5 cells/mL.
Each sample was incubated in glass test tubes at 37° C. for 24 hours, then plated in duplicate on tryptic soy agar (TSA) using a 10-fold dilution series. TSA plates were further incubated 24 hours at 37° C. The number of colony forming units (CFU) that grew were counted in order to calculate the number of bacteria that were present per mL in the original MHB solution.

The next data set relates to P. aeruginosa biofilms. Put plainly: EBEC, high number biofilms on PEEK membranes, 10^9 to 10^2 CFU/PEEK membrane in 24 hours. The settings on record: Pseudomonas aeruginosa; Table 3B c3; group head missing; read-out: MICs (μg/mL) II: P. aeruginosa. The method, then:
In addition to determining the MIC and the MBEC of polyamine compounds against planktonic bacteria and low number biofilms, our group wanted to determine the efficacy of polyamine compounds against high number biofilms. To do so, biofilms were grown on the surface of polyetheretherketone (PEEK) membranes using a membrane biofilm reactor. This reactor is similar to the CDC biofilm reactor, but rather than growing biofilms on coupon surfaces, the reactor was modified to hold PEEK membranes. In short, to grow biofilms within this system, 500 mL of brain heart infusion (BHI) broth were inoculated with 1 mL of a 0.5 McFarland. The reactor was placed on a hot plate set at 34° C. and the bacteria were grown under batch conditions for 24 hours. Following this protocol, biofilms typically grow to 10^9 CFU/PEEK membrane. […] A solution of 10% BHI was then flowed through the reactor at a rate of 6.94 mL/min for an additional 24 hours. PEEK membranes were then removed and placed into 2 mL of CAMHB that contained a desired concentration of polyamine compound or antibiotic. The EBEC was defined as the concentration of antimicrobial required to reduce a biofilm from approximately 10^9 CFU/PEEK membrane to approximately 10^2 CFU/PEEK membrane in a 24-hour period.

The subject of another data set is human blood. Briefly: Hemolysis test with diluted human blood (ISO 10993-4). From the text: Procedure: The PBS used in testing was calcium and magnesium free. The method has been validated using human blood from one donor. This is in compliance with ISO 10993-4 which states due to differences in blood activity, human blood should be used where possible. Furthermore, pooling unmatched human blood from multiple donors may cause red blood cell agglutination which in turn could cause hemolysis; this supports the use of a single donor.
The blood was drawn using vacutainers containing 0.1 M sodium citrate at a ratio of 9:1 (3.2% anticoagulant to blood). The blood in this test was used within four hours of blood draw. The collected blood was refrigerated until testing was performed.
A hemoglobin standard was diluted with Drabkin's reagent to give solutions at concentrations of 0.80, 0.60, 0.40, 0.30, 0.20, 0.10, 0.02, and 0.01 mg/ml. These solutions were allowed to stand at room temperature for a minimum of five minutes. The absorbance was read on a spectrophotometer at 540 nanometers (nm). A standard curve was determined with the absorbance values and the standard concentrations of hemoglobin.
Human blood was centrifuged at 700-800×g for 15 minutes. A 1 mL aliquot of the plasma was added into 1 mL of Drabkin's reagent, and placed at room temperature for a minimum of 15 minutes. The absorbance was read on a spectrophotometer at 540 nm. The hemoglobin concentration was determined from the standard curve and then multiplied by a factor of 2 to obtain the total plasma free hemoglobin. The plasma free hemoglobin was less than 2 mg/mL (actual value 0.221 mg/mL). A 20 μL aliquot of blood was added to 5 mL of Drabkin's reagent in duplicate and allowed to stand at room temperature for a minimum of 15 minutes. The absorbance was read on a spectrophotometer at 540 nm then multiplied by 251 to account for the dilution.
Based on the plasma hemoglobin and the blood absorbance against Drabkin's reagent, the blood was diluted out to 10±1 mg/mL with PBS. To verify the blood dilution, a 300 μL aliquot of this blood was added to 4.5 mL of Drabkin's reagent in triplicate and allowed to stand at room temperature for a minimum of 15 minutes. The absorbance was read on a spectrophotometer at 540 nm then multiplied by 16 to account for the dilution.
Glass test tubes were labeled appropriately. Both samples were prepared the same way. The samples were allowed to thaw prior to testing. To each test tube, 7 mL of the test article and 1 mL of the diluted blood were added. The controls consisted of the appropriate amount of control material, 7 mL of PBS and 1 mL of blood. Three tubes were prepared for each test article and control. The tubes were incubated at 37±2° C. for 3 hours±5 minutes. Tubes were gently inverted twice at 30 minute intervals throughout the incubation period. A non-hemolytic negative control, a hemolytic positive control and a PBS blank were included.
After incubation, test articles were centrifuged at 700-800×g for 15 minutes and 1 mL of the supernatant fluid was combined with 1 mL of Drabkin's reagent and allowed to stand at room temperature for a minimum of 15 minutes. Following the centrifugation phase, the supernatant of both test articles visually appeared clear and were particulate free. The PBS blank and the negative control supernatant visually appeared clear and were particulate free. The supernatant of the positive control visually appeared red and were particulate free. The test articles and controls were read at 540 nm in a spectrophotometer.
The hemolytic index (percent hemolysis) was interpreted using the following equation:
[formula] Where: Hemoglobin Released (mg/mL)=(Optical Density×X Coefficient+Constant)×16 Hemoglobin Present (mg/ml)=Diluted Blood 10±1 mg/mL
The corrected hemolytic index was calculated by subtracting the hemolytic index of the PBS blank solution from the hemolytic index of the test article and controls. […]

Molecules are shown by their SMILES. Where a name gives a salt, the structure may show the parent alone.

`NCCCNCCCNCc1ccccc1` [CZ-7, benzylnorspermidine]: the values for the MIC against MRSA and in the data set with P. aeruginosa biofilms were above 1200 µg/mL and above 5000 µg/mL, respectively.

Take `CC(C)CNCCCNCCCNCc1cc(CNCCCNCCCNCC(C)C)cc(-c2ccccc2)c1` [CZ-86, N^1,N^1′-([1,1′-biphenyl]-3,5-diylbis(methylene))bis(N^3-(3-(isobutylamino)propyl)propane-1,3-diamine), hydrochloride salt]: in the data set on human blood, the “Average Hemolytic Index (% Hemolysis)” value was determined as 0.76 % Hemolysis; the “Hemolytic Grade” value is listed as “non-hemolytic”; the “difference between the hemolytic indexes of test article and negative control” value is listed as 0.00%. The “Average Optical Density” value in the data set on human blood (540 nm) was 0.003. Further, in the data set with human blood (540 nm, three tubes, 37 ± 2° C., 3 hours), the “Optical Density” value was 0.003. Further, the “Corrected Hemolytic Index (% Hemolysis)” value in the data set with human blood (hemolytic index of the PBS blank subtracted) was 0.00 % Hemolysis. Besides, in the data set with human blood (three tubes), the “Hemolytic Index” value is 0.764.

Source of the values: patent publication US10440955B2, “Methods comprising a biocidal polyamine” (Curza Global, LLC, priority 2013, dated 2019).
